Measurements as given in patent publication US11560385B2, “Proteasome activity enhancing compounds” (Proteostasis Therapeutics, Inc., priority 2018, dated 2023).

Each compound was assayed against T1, USP14 (Homo sapiens (Human), UniProt P54578) (assay: Usp14 inhibition assay (Example 5A, A-series compounds)). Conditions: average value from a minimum of two experimental determinations; read-out: Usp14 IC50 Category.
Type: biochemical
Source text: Example 5A: Usp14 Inhibition Assay
(§1) The IC50 values in the Table below represent the average value from a minimum of two experimental determinations.

T1 sequence (P54578 whole entry, looked up): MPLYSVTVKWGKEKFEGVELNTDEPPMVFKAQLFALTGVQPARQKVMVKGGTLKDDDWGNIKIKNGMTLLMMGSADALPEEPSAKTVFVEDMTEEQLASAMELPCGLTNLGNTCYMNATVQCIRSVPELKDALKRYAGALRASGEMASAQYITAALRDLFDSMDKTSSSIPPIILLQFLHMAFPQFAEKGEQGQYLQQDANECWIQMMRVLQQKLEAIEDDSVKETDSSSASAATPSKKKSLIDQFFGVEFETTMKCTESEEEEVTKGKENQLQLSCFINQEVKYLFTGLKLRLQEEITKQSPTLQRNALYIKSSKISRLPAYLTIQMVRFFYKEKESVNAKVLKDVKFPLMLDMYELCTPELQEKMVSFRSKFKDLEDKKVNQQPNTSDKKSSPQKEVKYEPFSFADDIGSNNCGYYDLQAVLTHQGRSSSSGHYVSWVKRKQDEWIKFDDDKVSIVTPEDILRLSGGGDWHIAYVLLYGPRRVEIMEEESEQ

| Compound | IC50 |
| --- | --- |
| Cc1c(C(=O)CN2CCC(O)CC2)c2ccc(CCS(C)(=O)=O)cc2n1-c1ccc(Cl)cc1 [Example 7A, 1-(1-(4-Chlorophenyl)-2-methyl-6-(2-(methylsulfonyl)ethyl)-1H-indol-3-yl)-2-(4-hydroxypiperidin-1-yl)ethan-1-one] | < 50 nM |
| Cc1c(C(=O)CN2C3CCC2CC3)c2ccc(CCC#N)cc2n1-c1ccc(Cl)cc1 [Example 8A, 3-(3-(2-(7-Azabicyclo[2.2.1]heptan-7-yl)acetyl)-1-(4-chlorophenyl)-2-methyl-1H-indol-6-yl)propanenitrile] | < 50 nM |

What follows are compounds tested against T1, USP14 (assay: Usp14 inhibition assay (Example 57B, B-series compounds)). Conditions: IC50 class; average value from a minimum of two experimental determinations.
Type: biochemical
Source text: Example 57B: Usp14 Inhibition Assay
as §1

| Compound | IC50 |
| --- | --- |
| CCC(C)c1cc(C(=O)CN2C3CCC2[C@@H](O)C3)c(C)n1-c1ccc(C#N)cc1 (mixture of isomers) [Example 114B, (±)-4-(5-(sec-Butyl)-3-(2-((1R,2R,4S)-2-hydroxy-7-azabicyclo[2.2.1]heptan-7-yl)acetyl)-2-methyl-1H-pyrrol-1-yl)benzonitrile] | 50 to 500 nM |
| Cc1cc(C(=O)CN2C3CCC2[C@@H](O)C3)c(C)n1-c1ccc(C#N)cc1 (mixture of isomers) [Example 64B, (±)-4-(3-(2-((2R)-2-Hydroxy-7-azabicyclo[2.2.1]heptan-7-yl)acetyl)-2,5-dimethyl-1H-pyrrol-1-yl)benzonitrile] | 50 to 500 nM |
| Cc1c(F)c(C(=O)CN2[C@@H]3CC[C@H]2[C@@H](C)C3)c(C)n1-c1ccc(C#N)cc1 (racemic) [Example 101B, (±)-4-(3-Fluoro-2,5-dimethyl-4-(2-((1S,2S,4R)-2-methyl-7-azabicyclo[2.2.1]heptan-7-yl)acetyl)-1H-pyrrol-1-yl)benzonitrile] | 50 to 500 nM |
| Cc1cc(C(=O)CN2C3CCC2[C@@H](O)C3)c(C)n1-c1cc(F)c(C#N)cc1F (mixture of isomers) [Example 107B, (±)-2,5-Difluoro-4-(3-(2-((2R)-2-hydroxy-7-azabicyclo[2.2.1]heptan-7-yl)acetyl)-2,5-dimethyl-1H-pyrrol-1-yl)benzonitrile] | 50 to 500 nM |
| Cc1cc(C(=O)CN2C3CCC2[C@@H](O)C3)c(C)n1-c1cc(F)c(C#N)c(F)c1 (mixture of isomers) [Example 94B, (±)-2,6-Difluoro-4-(3-(2-((2R)-2-hydroxy-7-azabicyclo[2.2.1]heptan-7-yl)acetyl)-2,5-dimethyl-1H-pyrrol-1-yl)benzonitrile] | 50 to 500 nM |
| Cc1c(C(=O)CN2[C@H]3CC[C@@H]2[C@@H](C)C3)cc(CC2COC2)n1-c1ccc(C#N)cc1 (racemic) [Example 56B, (±)-4-(2-Methyl-3-(2-((1R,2S,4S)-2-methyl-7-azabicyclo[2.2.1]heptan-7-yl)acetyl)-5-(oxetan-3-ylmethyl)-1H-pyrrol-1-yl)benzonitrile] | 50 to 500 nM |
| Cc1c(C(=O)CN2C3CCC2[C@@H](O)C3)cc(COCCC#N)n1-c1ccc(C#N)cc1 (mixture of isomers) [Example 5B, (±)-4-(5-((2-Cyanoethoxy)methyl)-3-(2-((2R)-2-hydroxy-7-azabicyclo[2.2.1]heptan-7-yl)acetyl)-2-methyl-1H-pyrrol-1-yl)benzonitrile] | > 500 nM |
| Cc1c(C(=O)CN2[C@@H]3CC[C@@H]2CC(O)C3)cc(CCCCS(C)(=O)=O)n1-c1ccc(C#N)cc1 (stereo partly drawn) [Example 7B, 4-(3-(2-((1R,3r,5S)-3-Hydroxy-8-azabicyclo[3.2.1]octan-8-yl)acetyl)-2-methyl-5-(4-(methylsulfonyl)butyl)-1H-pyrrol-1-yl)benzonitrile] | < 50 nM |
| Cc1c(C(=O)CN2C3CCC2C(O)C3)cc([C@@H]2C[C@H]2CCC#N)n1-c1ccc(C#N)cc1 (mixture of isomers) [Example 17B, (±)-4-(5-((1R,2R)-2-(2-Cyanoethyl)cyclopropyl)-3-(2-((2R)-2-hydroxy-7-azabicyclo[2.2.1]heptan-7-yl)acetyl)-2-methyl-1H-pyrrol-1-yl)benzonitrile] | 50 to 500 nM |
| Cc1c(C(=O)CN2[C@@H]3CC[C@H]2[C@@H](O)C3)cc(C2CCCCC2)n1-c1ccc(C#N)cc1 (racemic) [Example 111B, (±)-4-(5-Cyclohexyl-3-(2-((1R,2R,4S)-2-hydroxy-7-azabicyclo[2.2.1]heptan-7-yl)acetyl)-2-methyl-1H-pyrrol-1-yl)benzonitrile] | 50 to 500 nM |
| Cc1c(C(=O)CN2C3CCC2[C@@H](O)C3)cc(CC(F)(F)F)n1-c1ccc(C#N)cc1 (mixture of isomers) [Example 115B, (±)-4-(3-(2-((2R)-2-Hydroxy-7-azabicyclo[2.2.1]heptan-7-yl)acetyl)-2-methyl-5-(2,2,2-trifluoroethyl)-1H-pyrrol-1-yl)benzonitrile] | 50 to 500 nM |
| Cc1cc(C(=O)CN2C3CCC2(C(=O)O)CC3)c(C)n1-c1ccc(C#N)cc1 [Example 127B, 7-(2-(1-(4-Cyanophenyl)-2,5-dimethyl-1H-pyrrol-3-yl)-2-oxoethyl)-7-azabicyclo[2.2.1]heptane-1-carboxylic Acid] | > 500 nM |
| Cc1c(C(=O)CN2C3CCC2CC3)cc(C#N)n1-c1ccc(C#N)cc1 [Example 137B, 4-(2-(7-Azabicyclo[2.2.1]heptan-7-yl)acetyl)-1-(4-cyanophenyl)-5-methyl-1H-pyrrole-2-carbonitrile] | < 50 nM |
| Cc1c(C(=O)CN2C3CCC2C(O)C3)cc([C@H](C)C2CCC2)n1-c1ccc(C#N)cc1 (stereo in doubt) [Example 151B, 4-(5-((R)-1-Cyclobutylethyl)-3-(2-((2R)-2-hydroxy-7-azabicyclo[2.2.1]heptan-7-yl)acetyl)-2-methyl-1H-pyrrol-1-yl)benzonitrile] | > 500 nM |
| CSCCCCc1cc(C(=O)CN2C3CCC2[C@@H](O)C3)c(C)n1-c1ccc(C#N)cc1 (mixture of isomers) [Example 37B, (±)-4-(3-(2-((2R)-2-Hydroxy-7-azabicyclo[2.2.1]heptan-7-yl)acetyl)-2-methyl-5-(4-(methylthio)butyl)-1H-pyrrol-1-yl)benzonitrile] | < 50 nM |
| Cc1cc(C(=O)CN2[C@@H]3CC[C@H]2[C@@H](C)[C@H]3C)c(C)n1-c1ccc(C#N)cc1 [Example 124B, 4-(3-(2-((1R,2R,3S,4S)-2,3-Dimethyl-7-azabicyclo[2.2.1]heptan-7-yl)acetyl)-2,5-dimethyl-1H-pyrrol-1-yl)benzonitrile] | 50 to 500 nM |
| Cc1c(C(=O)CN2C3CCC2[C@@H](O)C3)cc(CCCn2cccn2)n1-c1ccc(C#N)cc1 (mixture of isomers) [Example 24B, (±)-4-(5-(3-(1H-Pyrazol-1-yl)propyl)-3-(2-((2R)-2-hydroxy-7-azabicyclo[2.2.1]heptan-7-yl)acetyl)-2-methyl-1H-pyrrol-1-yl)benzonitrile] | 50 to 500 nM |
| Cc1nccn1C/C=C/c1cc(C(=O)CN2C3CCC2[C@@H](O)C3)c(C)n1-c1ccc(C#N)cc1 (mixture of isomers) [Example 6B, (±)-4-(3-(2-((2R)-2-Hydroxy-7-azabicyclo[2.2.1]heptan-7-yl)acetyl)-2-methyl-5-((E)-3-(2-methyl-1H-imidazol-1-yl)prop-1-en-1-yl)-1H-pyrrol-1-yl)benzonitrile] | < 50 nM |
| Cc1c(C(=O)CN2C3CCC2CC3)c(C)n(-c2ccc(C#N)cc2)c1-c1ccc(C#N)cc1 [Example 16B, 4,4′-(4-(2-(7-Azabicyclo[2.2.1]heptan-7-yl)acetyl)-3,5-dimethyl-1H-pyrrole-1,2-diyl)dibenzonitrile] | > 500 nM |
| Cc1c(C(=O)CN2C3CCC2[C@@H](O)C3)cc(C(F)(F)F)n1-c1ccc(C#N)cc1 (mixture of isomers) [Example 109B, (±)-4-(3-(2-((2R)-2-Hydroxy-7-azabicyclo[2.2.1]heptan-7-yl)acetyl)-2-methyl-5-(trifluoromethyl)-1H-pyrrol-1-yl)benzonitrile] | 50 to 500 nM |
